Source: patent US4800199A, “3-[2-thiazoloamino]-8-oxo-7-substituted-5-thia-1-a zabicyclo-[4.2.0]oct-2-ene-2-carboxylic acid and salts thereof and diphenylmethyl esters thereof” (American Cyanamid Company, priority 1986, dated 1989)
≈ marks a conversion by molar mass, not a printed value.

Columns and labels:
Test in all cases: In vitro antibacterial activity, Mueller-Hinton agar dilution
Type in all cases: cell-based
Acinetobacter CMC 83-89 = conditions: CMC8389, read-out: Minimal Inhibitory Concentration
From the text: (§1) The results of this test on representative compounds of this invention appear in Table I.

Acinetobacter IO 83-49 = conditions: IO8349, read-out: Minimal Inhibitory Concentration
From the text: as §1

[1] = tested on: Bacillus subtilis ATCC 6633; conditions: ATCC6633, read-out: Minimal Inhibitory Concentration
From the text: as §1

[2] = tested on: Citrobacter diversis K83-24; conditions: K8324, read-out: Minimal Inhibitory Concentration
From the text: as §1

[3] = tested on: Citrobacter freundii IO 83-13; conditions: IO8313, read-out: Minimal Inhibitory Concentration
From the text: as §1

[4] = tested on: Enterobacter aerogenes IO 83-44; conditions: Klebsiella aerogenes, IO8344, read-out: Minimal Inhibitory Concentration
From the text: as §1

[5] = tested on: Enterobacter cloacae CMC 84-4; conditions: CMC844, read-out: Minimal Inhibitory Concentration
From the text: as §1

Enterococcus CMC 83-53 = conditions: CMC8353, read-out: Minimal Inhibitory Concentration
From the text: as §1

Escherichia coli 311 = conditions: read-out: Minimal Inhibitory Concentration
From the text: as §1

[6] = tested on: Escherichia coli ATCC 25922; conditions: ATCC25922, read-out: Minimal Inhibitory Concentration
From the text: as §1

[7] = tested on: Escherichia coli CMC 84-11; conditions: CMC8411, read-out: Minimal Inhibitory Concentration
From the text: as §1

[8] = tested on: Klebsiella oxytoca IO 83-1; conditions: IO831, read-out: Minimal Inhibitory Concentration
From the text: as §1

Klebsiella pneumoniae AD = conditions: read-out: Minimal Inhibitory Concentration
From the text: as §1

[9] = tested on: Klebsiella pneumoniae CMC 84-5; conditions: CMC845, read-out: Minimal Inhibitory Concentration
From the text: as §1

[10] = tested on: Micrococcus lutea PC 1001; conditions: PC1001, read-out: Minimal Inhibitory Concentration
From the text: as §1

[11] = tested on: Morganella morganii IO 83-18; conditions: IO8318, read-out: Minimal Inhibitory Concentration
From the text: as §1

[12] = tested on: Proteus rettgheri IO 83-21; conditions: read-out: Minimal Inhibitory Concentration
From the text: as §1

[13] = tested on: Providencia stuartii CMC 83-82; conditions: CMC8382, read-out: Minimal Inhibitory Concentration
From the text: as §1

[14] = tested on: Pseudomonas aeruginosa 12-4-4; conditions: 1244, read-out: Minimal Inhibitory Concentration
From the text: as §1

[15] = tested on: Pseudomonas aeruginosa ATCC 27853; conditions: ATCC27853, read-out: Minimal Inhibitory Concentration
From the text: as §1

[16] = tested on: Pseudonmonas aeruginosa CMC 83-19; conditions: read-out: Minimal Inhibitory Concentration
From the text: as §1

[17] = tested on: Serratia marcescens CMC 83-27; conditions: CMC8327, read-out: Minimal Inhibitory Concentration
From the text: as §1

Serratia marcescens F-35 = conditions: F35, read-out: Minimal Inhibitory Concentration
From the text: as §1

[18] = tested on: Staphylococcus aureus ATCC 25923; conditions: ATCC25923, read-out: Minimal Inhibitory Concentration
From the text: as §1

[19] = tested on: Staphylococcus aureus SSC 82-20; conditions: SSC8220, read-out: Minimal Inhibitory Concentration
From the text: as §1

[20] = tested on: Staphylococcus aureus SSC 82-24; conditions: SSC8224, read-out: Minimal Inhibitory Concentration
From the text: as §1

[21] = tested on: Staphylococcus aureus SSC 82-26; conditions: SSC8226, read-out: Minimal Inhibitory Concentration
From the text: as §1

[22] = tested on: Staphylococcus aureus SSC 82-31; conditions: SSC8231, read-out: Minimal Inhibitory Concentration
From the text: as §1

[23] = tested on: Staphylococcus aureus SSC 82-57; conditions: SSC8257, read-out: Minimal Inhibitory Concentration
From the text: as §1

[24] = tested on: Staphylococcus epidermidis ATCC 12228; conditions: ATCC12228, read-out: Minimal Inhibitory Concentration
From the text: as §1

[25] = tested on: Staphylococcus epidermidis CMC 83-133; conditions: CMC83133, read-out: Minimal Inhibitory Concentration
From the text: as §1

[26] = tested on: Streptococcus faecalis ATCC 29212; conditions: Enterococcus faecalis, ATCC29212, read-out: Minimal Inhibitory Concentration
From the text: as §1

MIC (Acinetobacter CMC 83-89)	MIC (Acinetobacter IO 83-49)	MIC [1]	MIC [2]	MIC [3]	MIC [4]	MIC [5]	MIC (Enterococcus CMC 83-53)	MIC (Escherichia coli 311)	MIC [6]	MIC [7]	MIC [8]	MIC (Klebsiella pneumoniae AD)	MIC [9]	MIC [10]	MIC [11]	MIC [12]	MIC [13]	MIC [14]	MIC [15]	Compound	further results
> 128 µg/mL	> 128 µg/mL	0.5 µg/mL (≈ 0.942 µM)	> 128 µg/mL	> 128 µg/mL	> 128 µg/mL	> 128 µg/mL	64 µg/mL (≈ 121 µM)	> 128 µg/mL	> 128 µg/mL	> 128 µg/mL	> 128 µg/mL	> 128 µg/mL	> 128 µg/mL	1 µg/mL (≈ 1.88 µM)	> 128 µg/mL	64 µg/mL (≈ 121 µM)	> 128 µg/mL	> 128 µg/mL	> 128 µg/mL	CC(=O)OCC1=C(C(=O)O)N2C(=O)[C@@H](Nc3nc(C(=O)OCC(Cl)(Cl)Cl)cs3)[C@H]2SC1 [Example 9, (6R-trans)-3-[(Acetyloxy)methyl]-8-oxo-7-[[4-[(2,2,2-trichloroethoxy)carbonyl]-2-thiazolyl]amino]-5-thia-1-azabicyclo[4.2.0]oct-2-ene-2-carboxylic acid]	MIC [16]: > 128 µg/mL; MIC [17]: > 128 µg/mL; MIC (Serratia marcescens F-35): > 128 µg/mL; MIC [18]: 0.12 µg/mL (≈ 0.226 µM); MIC [19]: 0.25 µg/mL (≈ 0.471 µM); MIC [20]: > 128 µg/mL; MIC [21]: 0.12 µg/mL (≈ 0.226 µM); MIC [22]: ≤ 0.06 µg/mL; MIC [23]: 128 µg/mL (≈ 241 µM); MIC [24]: ≤ 0.06 µg/mL; MIC [25]: ≤ 0.06 µg/mL; MIC [26]: 16 µg/mL (≈ 30.1 µM)
> 128 µg/mL	> 128 µg/mL	8 µg/mL (≈ 20 µM)	> 128 µg/mL	> 128 µg/mL	> 128 µg/mL	> 128 µg/mL	> 128 µg/mL	> 128 µg/mL	> 128 µg/mL	> 128 µg/mL	> 128 µg/mL	> 128 µg/mL	> 128 µg/mL	16 µg/mL (≈ 40.1 µM)	> 128 µg/mL	128 µg/mL (≈ 320 µM)	> 128 µg/mL	> 128 µg/mL	> 128 µg/mL	CC(=O)OCC1=C(C(=O)O)N2C(=O)[C@@H](Nc3nc(C(=O)O)cs3)[C@H]2SC1 [Example 7, (6R-trans)-3-[(Acetyloxy)methyl]-7-[(4-carboxy-2-thiazolyl)amino]-8-oxo-5-thia-1-azabicyclo[4.2.0]oct-2-ene-2-carboxylic acid]	MIC [16]: > 128 µg/mL; MIC [17]: > 128 µg/mL; MIC (Serratia marcescens F-35): > 128 µg/mL; MIC [18]: 8 µg/mL (≈ 20 µM); MIC [19]: 16 µg/mL (≈ 40.1 µM); MIC [20]: > 128 µg/mL; MIC [21]: 8 µg/mL (≈ 20 µM); MIC [22]: 8 µg/mL (≈ 20 µM); MIC [23]: 128 µg/mL (≈ 320 µM); MIC [24]: 4 µg/mL (≈ 10 µM); MIC [25]: 2 µg/mL (≈ 5.01 µM); MIC [26]: > 128 µg/mL
> 128 µg/mL	> 128 µg/mL	1 µg/mL (≈ 2.71 µM)	> 128 µg/mL	> 128 µg/mL	> 128 µg/mL	> 128 µg/mL	128 µg/mL (≈ 346 µM)	64 µg/mL (≈ 173 µM)	> 128 µg/mL	> 128 µg/mL	> 128 µg/mL	64 µg/mL (≈ 173 µM)	128 µg/mL (≈ 346 µM)	4 µg/mL (≈ 10.8 µM)	> 128 µg/mL	> 128 µg/mL	> 128 µg/mL	> 128 µg/mL	> 128 µg/mL	CC(=O)OCC1=C(C(=O)O)N2C(=O)[C@@H](Nc3nc(C)cs3)[C@H]2SC1 [Example 12, (6R-trans)-3-[(Acetyloxy)methyl]-7-[(4-methyl-2-thiazolyl)amino]-8-oxo-5-thia-1-azabicyclo[4.2.0]oct-2-ene-2-carboxylic acid]	MIC [16]: > 128 µg/mL; MIC [17]: > 128 µg/mL; MIC (Serratia marcescens F-35): > 128 µg/mL; MIC [18]: 4 µg/mL (≈ 10.8 µM); MIC [19]: 4 µg/mL (≈ 10.8 µM); MIC [20]: 64 µg/mL (≈ 173 µM); MIC [21]: 4 µg/mL (≈ 10.8 µM); MIC [22]: 4 µg/mL (≈ 10.8 µM); MIC [23]: 128 µg/mL (≈ 346 µM); MIC [24]: 2 µg/mL (≈ 5.41 µM); MIC [25]: 2 µg/mL (≈ 5.41 µM); MIC [26]: 128 µg/mL (≈ 346 µM)
> 128 µg/mL	> 128 µg/mL	8 µg/mL (≈ 16.4 µM)	> 128 µg/mL	> 128 µg/mL	> 128 µg/mL	> 128 µg/mL	> 128 µg/mL	> 128 µg/mL	> 128 µg/mL	> 128 µg/mL	> 128 µg/mL	> 128 µg/mL	> 128 µg/mL	8 µg/mL (≈ 16.4 µM)	> 128 µg/mL	> 128 µg/mL	> 128 µg/mL	> 128 µg/mL	> 128 µg/mL	CC(=O)OCC1=C(C(=O)O)N2C(=O)[C@@H](Nc3nc(C(=O)NCc4ccccc4)cs3)[C@H]2SC1 [Example 11, (6R-trans)-3-[(Acetyloxy)methyl]-8-oxo-7-[[4-[[(phenylmethyl)amino]carbonyl]-2-thiazolyl]amino]-5-thia-1-azabicyclo[4.2.0]oct-2-ene-2-carboxylic acid]	MIC [16]: > 128 µg/mL; MIC [17]: > 128 µg/mL; MIC (Serratia marcescens F-35): > 128 µg/mL; MIC [18]: 4 µg/mL (≈ 8.19 µM); MIC [19]: 8 µg/mL (≈ 16.4 µM); MIC [20]: > 128 µg/mL; MIC [21]: 4 µg/mL (≈ 8.19 µM); MIC [22]: 4 µg/mL (≈ 8.19 µM); MIC [23]: 128 µg/mL (≈ 262 µM); MIC [24]: 2 µg/mL (≈ 4.09 µM); MIC [25]: 2 µg/mL (≈ 4.09 µM); MIC [26]: > 128 µg/mL
